According to article PMC10186366 (ACS Pharmacology & Translational Science, 2023):
Read-outs that look alike come from different tables or passages of the source.

Tests used:
[1] = target: T1, human ATIC (AICARFTase) (Homo sapiens, UniProt P31939); assay: In vitro AICARFTase (ATIC) enzyme assay (THF formation from 10-CHOTHF); format: biochemical; settings: monoglutamyl antifolates; mean (standard error), at least three replicate assays; tested up to 200 μM
T1 construct: full-length human ATIC; made in house; host or cells: E. coli Rosetta (DE3)pLysS
Procedure: We directly tested inhibition potencies by in vitro assays using purified GARFTase and ATIC (AICARFTase) to calculate inhibition dissociation constants (Ki’s) (Table 2).[45]
N-terminal hexahistidine-tagged GARFTase (formyltransferase domain; residues 808–1010) and full-length human ATIC were expressed in Rosetta (DE3)pLysS cells.[45],[48] Cultures (1 L) were grown at 37 °C in LB media with 100 μg/mL ampicillin and 34 μg/mL chloramphenicol until OD600 reached 0.6. Isopropyl β-D-1-thiogalactopyranoside (500 μM) was added, and the cells were incubated at 20 °C for 16–18 h. The cultures were pelleted and resuspended in 40 mL of 25 mM Tris–HCl, pH 7.5, 300 mM NaCl, 5 mM β-mercaptoethanol (β-ME), 10 mM CaCl2, 10 mM MgCl2, 40 mg lysozyme, and 8 U DNAse I (Sigma). The cells were lysed by emulsification.
His-ATIC was purified from the lysate by immobilized metal affinity chromatography with a 4 mL Ni-NTA column (Gold Biotechnology).[45] The column was washed with 5 CV of 25 mM Tris–HCl, pH 7.5, 300 mM NaCl, 10 mM imidazole, and 5 mM β-ME (wash buffer) followed by 5 CV of the wash buffer containing 25 mM imidazole. The protein was eluted with 5 CV of the elution buffer containing components of the wash buffer with 300 mM imidazole. Further purification was by ÄKTA FPLC (GE Healthcare) with a Superdex 200 16/60 (GE Healthcare) column equilibrated with 20 mM Tris–HCl, pH 7.5, 150 mM NaCl, 50 mM KCl, 5 mM EDTA, and 5 mM dithiothreitol (DTT). His-ATIC was stored at 150 μM at 4 °C in this buffer (up to 6 months) or at 100 μM with 20% glycerol at −80 °C for longer-term storage.
GARFTase catalytic activity was measured by monitoring THF formation from 10-CHOTHF.[32],[45],[48] GARFTase assays included 40 μM 10-CHO-THF, 50 nM His-GARFTase, 15 μM α,β-GAR, and a range of inhibitor concentrations in 25 mM Tris–HCl, pH 8.0, 300 mM NaCl, and 5 mM β-ME at 37 °C.[45] AICARFTase catalytic activity was measured by monitoring THF formation from 10-CHOTHF.[54] Reactions included 50 μM 10-CHOTHF, 100 nM His-ATIC, 50 μM ZMP, and inhibitors in 32.6 mM Tris–HCl, pH 7.5, 25 mM KCl, and 5 mM β-ME at 25 ° C.[45] Kinetic measurements were recorded in triplicate in a UV-transparent 96-well plate (Costar 3635) at 298 nm using a BioTek Synergy Neo2 Plate Reader. Initial slopes were graphed against inhibitor concentrations and fit to a three-parameter nonlinear regression to calculate IC50 values for each compound (GraphPad Prism 8.0). […] SHMT2 activity was assayed by monitoring NADH production with a coupled assay including 500 nM His-SHMT2 and 10 μM His-MTHFD2 ([…] molar ratio His-SHMT2/His-MTHFD2). NADH production by His-MTHFD2 was monitored by fluorescence at 470 nm with excitation at 360 nm (Synergy Neo2 Biotek plate reader). Inhibition constants (Ki’s) were calculated from the IC50 values using the equation Ki = IC50/([S]/KM + 1) and the Km and substrate concentration for THF. The THF concentration in the reaction was […]. The calculated Km value for THF with His-SHMT2 was 62.8 μM.

[2] = target: T2, human GARFTase (Homo sapiens, UniProt P22102); assay: In vitro GARFTase enzyme assay (THF formation from 10-CHOTHF); format: biochemical
T2 construct: GARFTase (formyltransferase domain; residues 808–1010); made in house; host or cells: E. coli Rosetta (DE3)pLysS
T2 sequence (P22102 808-1010): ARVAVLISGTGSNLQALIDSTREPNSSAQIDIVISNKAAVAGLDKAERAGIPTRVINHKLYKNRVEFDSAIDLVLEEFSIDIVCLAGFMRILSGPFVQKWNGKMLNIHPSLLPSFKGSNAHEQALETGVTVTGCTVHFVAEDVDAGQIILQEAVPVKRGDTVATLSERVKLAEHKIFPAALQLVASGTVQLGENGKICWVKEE
Procedure: His-GARFTase was purified from the lysate by ÄKTA FPLC (GE Healthcare) with a Ni-NTA column (Qiagen, Valencia, CA).[48] The column was washed with 5 column volumes (CV) of 25 mM Tris–HCl, pH 8, 300 mM NaCl, 10% glycerol, and 5 mM β-ME. His-GARFTase was eluted with a 0 to 75% gradient of 25 mM Tris–HCl, pH 8, 300 mM NaCl, 10% glyercol, 300 mM imidazole, and 5 mM β-ME over 10 CV. Further purification involved size exclusion chromatography on a Superdex 75 16/60 (GE Healthcare) column with 25 mM Tris–HCl, pH 8, 10 mM β-ME, and 300 mM NaCl. Purified His-GARFTase was stored at 90 μM in 20% glycerol at −80 °C.
GARFTase catalytic activity was measured by monitoring THF formation from 10-CHOTHF.[32],[45],[48] […] Initial slopes were graphed against inhibitor concentrations and fit to a three-parameter nonlinear regression to calculate IC50 values for each compound (GraphPad Prism 8.0). […] Inhibition constants (Ki’s) were calculated from the IC50 values using the equation Ki = IC50/([S]/KM + 1) and the Km and substrate concentration for THF.

[3] = monoglutamyl antifolates, mean (standard error), at least three replicate assays, tested up to 150 μM, read-out: GARFTase Ki

T1 sequence (P31939 whole entry): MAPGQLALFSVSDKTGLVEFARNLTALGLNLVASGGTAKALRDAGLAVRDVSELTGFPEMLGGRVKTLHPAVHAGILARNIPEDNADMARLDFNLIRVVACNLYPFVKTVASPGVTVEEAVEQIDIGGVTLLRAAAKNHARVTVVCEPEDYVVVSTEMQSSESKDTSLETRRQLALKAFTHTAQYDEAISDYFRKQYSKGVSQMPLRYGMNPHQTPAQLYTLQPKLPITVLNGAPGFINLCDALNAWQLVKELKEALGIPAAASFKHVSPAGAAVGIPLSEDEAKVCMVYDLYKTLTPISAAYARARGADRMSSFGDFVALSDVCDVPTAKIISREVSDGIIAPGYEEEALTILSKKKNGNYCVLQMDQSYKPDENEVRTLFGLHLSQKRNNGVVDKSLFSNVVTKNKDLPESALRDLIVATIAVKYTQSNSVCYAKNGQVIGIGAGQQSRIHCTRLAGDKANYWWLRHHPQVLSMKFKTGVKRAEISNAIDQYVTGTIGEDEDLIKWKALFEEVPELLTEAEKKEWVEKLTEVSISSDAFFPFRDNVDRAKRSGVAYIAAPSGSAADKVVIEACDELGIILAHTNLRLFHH

Row | SMILES | Ki [1] [µM] | Ki [2, 3] [µM] | Ki [2] [µM] | GARFTase potency of 9 relative to 2 ([2]; ratio of Ki values) [fold] | GARFTase potency of 9 relative to 10 ([2]; ratio of Ki values) [fold]
1 | Nc1nc2sc(CCCc3ccc(C(=O)N[C@@H](CCC(=O)O)C(=O)O)cc3)cc2c(=O)[nH]1 [Compound 1] | > 200 | – | – | – | –
2 | Nc1nc2sc(CCCCc3cccc(C(=O)N[C@@H](CCC(=O)O)C(=O)O)n3)cc2c(=O)[nH]1 [Compound 3, (6-(4-(2-Amino-4-oxo-3,4-dihydrothieno[2,3-d]pyrimidin-6-yl)butyl)picolinoyl)-L-glutamic Acid] | 18.4 | 26.7 | – | – | –
3 | Nc1nc2sc(CCCCc3ccc(C(=O)N[C@@H](CCC(=O)O)C(=O)O)nc3)cc2c(=O)[nH]1 [Compound 4, (5-(4-(2-Amino-4-oxo-3,4-dihydrothieno[2,3-d]pyrimidin-6-yl)butyl)picolinoyl)-L-glutamic Acid] | 12.1 | – | > 150 | – | –
4 | Nc1nc2sc(CCCCc3cnc(C(=O)N[C@@H](CCC(=O)O)C(=O)O)c(F)c3)cc2c(=O)[nH]1 [Compound 5, (5-(4-(2-Amino-4-oxo-3,4-dihydrothieno[2,3-d]pyrimidin-6-yl)butyl)-3-fluoropicolinoyl)-L-glutamic Acid] | > 200 | 13.7 | – | – | –
5 | Nc1nc2sc(CCCc3ccc(C(=O)N[C@@H](CCC(=O)O)C(=O)O)c(F)c3)cc2c(=O)[nH]1 [Compound 6, (4-(3-(2-Amino-4-oxo-3,4-dihydrothieno[2,3-d]pyrimidin-6-yl)propyl)-2-fluorobenzoyl)-L-glutamic Acid] | 7.3 | > 150 | – | – | –
6 | Nc1nc2sc(CCCCc3ccc(C(=O)N[C@@H](CCC(=O)O)C(=O)O)c(F)c3)cc2c(=O)[nH]1 [Compound 7, (4-(4-(2-Amino-4-oxo-3,4-dihydrothieno[2,3-d]pyrimidin-6-yl)butyl)-2-fluorobenzoyl)-L-glutamic Acid] | 19.4 | > 150 | – | – | –
7 | Nc1nc2sc(CCCc3csc(C(=O)N[C@@H](CCC(=O)O)C(=O)O)c3F)cc2c(=O)[nH]1 [Compound 8, (4-(3-(2-Amino-4-oxo-3,4-dihydrothieno[2,3-d]pyrimidin-6-yl)propyl)-3-fluorothiophene-2-carbonyl)-L-glutamic Acid] | 14.5 | 3.1 | – | – | –
8 | Nc1nc2sc(CCCCc3csc(C(=O)N[C@@H](CCC(=O)O)C(=O)O)c3F)cc2c(=O)[nH]1 [Compound 9, (4-(4-(2-Amino-4-oxo-3,4-dihydrothieno[2,3-d]pyrimidin-6-yl)butyl)-3-fluorothiophene-2-carbonyl)-L-glutamic Acid] | 23.7 | – | 0.17 | 17 | 25
